# According to patent USRE29469E, “Hydroxylated 15-deoxy derivatives of 9-hydroxyl-13-trans-prostenoic acid” (American Cyanamid Company, priority 1976, dated 1977):
# Columns and labels:
# [1] = tested on: bronchospasms elicited by acetylcholine; test: Bronchodilator activity (Konzett assay) against acetylcholine; type: in vivo, guinea pigs; settings: Cavia porcellus, guinea pig, three cumulative intravenous doses, read-out: ED50, spasmogenic agent choline
# Description: (§1) Bronchodilator activity was determined in guinea pigs against bronchospasms elicited by intravenous injections of 5-hydroxytryptamine, histamine or acetylcholine by the Konzett procedure, [See J. Lulling, P. Lievens, F. El Sayed and J. Prignot, Arzneimittel-Forschung, 18, 995 (1968).]
# (§2) In the Table which follows bronchodilator activity for representative compounds of this invention against one or more of the three spasmogenic agents is expressed as an ED50 determined from the results obtained with three logarithemic cumulative intravenous dose.
# [2] = tested on: bronchospasms elicited by histamine; test: Bronchodilator activity (Konzett assay) against histamine; type: in vivo, guinea pigs; settings: guinea pig, three cumulative intravenous doses; for ED50: Cavia porcellus, read-out: ED50, spasmogenic agent histamine
# Description: as §1, §2
# gastric acid secretion = test: Inhibition of gastric acid secretion (modified Shay rat procedure); type: in vivo, rats (male, CFE strain); settings: 3 hours; for inhibition in vivo at 50 mg/kg: intraduodenal dose 50 mg./kg of body weight
# Description: The novel compounds of the present invention are also effective inhibitors of gastric acid secretion and of ulcer development in experimental animals, and thus are potentially valuable as agents for the control of gastric acid secretion and of gastric erosion and as anti-ulcer agents. Gastric acid secretion inhibitory action is usually measure by the "Shay rat" procedure^(1,2) with some modifications as follows.
# The rats (male, CFE strain) were starved for 48 hours (water was given ad libitum) to permit evacuation of stomach contents. On the morning of the experiment, under ether anesthesia, the abdominal region was shaved and a midline incision (1-11/2 inches) was made with a scapel. With the help of a closed curved hemostate the duodenum was picked up. Upon getting the duodenum into view, fingers were used to pull the stomach through the opening, the stomach was then gently manipulated with fingers to rid the stomach of air and residual matter which were pushed through the pylorus. Two-5 inch sutures were drawn under the pyloric-duodenal puncture. A ligature, at the juncture, was formed with one of the threads. The second ligature was also formed but not tightened.
# The test compound and the vehicle, usually 1 ml./100 g. body weight, were injected into the duodenum as close as possible to the first ligature. After injection the second ligature was tightened below the injection site to minimize leakage. The stomach was placed back through the opening into the abdominal cavity, the area of incision was washed with saline and the incision was closed with autoclips. (Occasionally, instead of an intraduodenal injection, animals were dosed by the oral or subcutaneous route. In the latter case, dosing was done 30 to 60 minutes before the operation.)
# The abdominal cavity was exposed by cutting with scissors and the esophagus close to the stomach was clamped off with a hemostat, the stomach was removed by cutting above the hemostat (the .[.espphagus.]. .Iadd.esophagus .Iaddend.was cut) and between the two sutures. Extraneous .[.tisue.]. .Iadd.tissue .Iaddend.was removed, the stomach washed with saline and blotted on gauze. A slit was carefully made in the stomach which was held over a funnel and the contents were collected in a centrifuge tube. The stomach was further cut along the outside edge and turned inside out. Two ml. H2 O were used to wash the stomach contents into the respective centrifuged tube. The combined stomach contents and wash were then centrifuged out for 10 min. in the International Size 2 Centrifuge (setting at 30). The supernatant was collected, volume measured and recorded, 2 drops of a phenylphthalein indicator (1% in 95% ethanol) were added and the solution was titrated with 0.02N NaOH (or with 0.04N NaOH when large volumes of stomach contents were encountered to pH 8.4 (because of usual coloring of the stomach contents, phenolphthalein was only used to permit visual indication that the end point was near) and the amount of acid present was calculated.
# Compounds inducing inhibition of gastric acid secretion of 20% or more were considered active. In a representative operation, and merely by way of illustration, the results obtained with this assay with typical compounds of the present invention are given in Table II below.
# [3] = tested on: bronchospasms elicited by 5-hydroxytryptamine; test: Bronchodilator activity (Konzett assay) against 5-hydroxytryptamine; type: in vivo, guinea pigs; settings: guinea pig, three cumulative intravenous doses; for ED50: Cavia porcellus, read-out: ED50, spasmogenic agent 5-hydroxytryptamine
# Description: as §1, §2
# [4] = tested on: ulcerogenic properties of indomethacin; test: Anti-ulcerogenic effect (protection against the ulcerogenic properties of indomethacin); type: in vivo, rats; settings: indomethacin 20 mg./kg s.c.
# Description: The compounds of this invention also provide protection against the ulcerogenic properties of indomethacin. This assay was carried out in the following manner.
# Rats were starved for 48 hours (water was given ad libitum). Indomethacin (20 mg./kg. of body weight) was administered by the subcutaneous route and one-half the dose of the test compound was administered by gavage at the same time. After 3 hours, the second half of the test compound was administered also by gavage. Five hours after the administration of indomethacin the animals were decapitated and the stomachs removed. The stomachs were washed with distilled water, blotted on gauze, cut along the larger curvature, and the contents rinsed with distilled water. The stomachs were spread out, pinned on a cork and visualized under magnifying glass for ulcers. The criteria for scoring of .[.ulers.]. .Iadd.ulcers .Iaddend. was as previously reported. [Abdel-Galil et al. Brit. J. Pharmac. Chemotherapy 33:1-14 (1968)]. […]
# 1- Petechial hemorrhage or pin point ulcers
# 3- Many ulcers, a few large
# 4- Many ulcers, mainly large
# A difference of at least 0.7 unit between the scores for control animals (treated with indomethacin but not test compound) and animals treated with indomethacin and test compound is considered indicative of activity for the test compound. (Control animals treated with neither indomethacin nor test compound give scores of about 0.5-0.8.) The results obtained in this assay with typical compounds of the present invention are set forth in Table I below.
# [5] = Rattus norvegicus, intraduodenal dose 100 mg./kg of body weight, read-out: Percent Inhibition
# [6] = Rattus norvegicus, read-out: Percent Inhibition
# [7] = total oral dose 50 mg./kg, control score 2.3, scale 0 (normal stomach) to 4 (many ulcers, mainly large)
Compound,ED50 [1],ED50 [2],ED50 [3],inhibition in vivo at 50 mg/kg (gastric acid secretion; [6]),other results
O=C(O)CCCCCC[C@H]1C(=O)CC[C@@H]1/C=C/CCCCCCO (relative stereo) [20-hydroxy-9-oxo-13-trans-prostenoic acid],2.16 mg/kg,0.03 mg/kg,0.117 mg/kg,–,inhibition in vivo at 100 mg/kg (gastric acid secretion; [5]): 56%
"CCCCC(O)C/C=C/[C@H]1[C@H](O)CC(=O)[C@@H]1CCCCCCC(=O)O (relative stereo) [9-oxo-11α ,16-dihydroxy-13-trans-prostenoic acid]",0.00042 mg/kg,0.166 mg/kg,0.000607 mg/kg,–,"inhibition in vivo at 0.4 mg/kg (gastric acid secretion; Rattus norvegicus, dose 0.4* mg./kg of body weight (asterisk not explained), read-out: Percent Inhibition): 27%; inhibition in vivo at 0.8 mg/kg (gastric acid secretion; Rattus norvegicus, dose 0.8* mg./kg of body weight (asterisk not explained), read-out: Percent Inhibition): 53%; inhibition in vivo at 1.6 mg/kg (gastric acid secretion; Rattus norvegicus, dose 1.6* mg./kg of body weight (asterisk not explained), read-out: Percent Inhibition): 79%; Score treated ([4]; total oral dose 0.18 mg./kg, control score 3.0, scale 0-4): 2.5; Score treated ([4]; total oral dose 0.39 mg./kg, control score 3.0, scale 0-4): 2.0; Score treated ([4]; total oral dose 0.78 mg./kg, control score 3.0, scale 0-4): 1.5; Score treated ([4]; total oral dose 1.56 mg./kg, control score 2.5, scale 0-4): 1.0; Score treated ([4]; total oral dose 4.4 mg./kg, control score 3.0, scale 0-4): 1.0; Score treated ([4]; total oral dose 12.5 mg./kg, control score 3.0, scale 0-4): 1.0"
"O=C(O)CCCCCC[C@H]1C(=O)C=C[C@@H]1/C=C/CCCCCCO (relative stereo) [20-hydroxy-9-oxo-10,13-trans-prostadienoic acid]",–,2.28 mg/kg,1.32 mg/kg,91%,–
"O=C(O)CCCCCC[C@@H]1C(=O)CC[C@H]1/C=C/CCCCO (relative stereo) [20-hydroxy-9-oxo-18,19-dinor-13-trans-prostenoic acid]",10 mg/kg,2.22 mg/kg,2.85 mg/kg,21%,–
"CCOC(=O)CCCCCC[C@@H]1C(=O)CC[C@H]1/C=C/CCCCO (relative stereo) [ethyl 20-hydroxy-9-oxo-18,19-dinor-13trans-prostenoate]",–,–,–,–,inhibition in vivo at 100 mg/kg (gastric acid secretion; [5]): 49%
"O=C(O)CCCCCC[C@H]1C(=O)C[C@@H](O)[C@@H]1/C=C/CCCCCCO (relative stereo) [11α ,20-dihydroxy-9-oxo-13-trans-prostenoic acid]",2.34 mg/kg,0.077 mg/kg,0.377 mg/kg,–,–
"CCCC(O)CC/C=C/[C@H]1[C@H](O)CC(=O)[C@@H]1CCCCCCC(=O)O (relative stereo) [9-oxo-11α,17-dihydroxy-13-trans-prostenoic acid]",0.518 mg/kg,0.45 mg/kg,0.235 mg/kg,73%,"Score treated ([4]; total oral dose 25 mg./kg, control score 2.7, scale 0-4): 1.3"
"CCCCC(O)CCC[C@H]1CCC(=O)[C@@H]1CCCCCCC(=O)O (stereo partly shown) [9-oxo-16-hydroxy-prostanoic acid, 16-hydroxy-9-oxo-prostanoic acid]",1.13 mg/kg,–,0.0927 mg/kg,58%,"Score treated [4, 7]: 1.3"
CCCCC(O)C/C=C/[C@H]1CCC(=O)[C@@H]1CCCCCCC(=O)O (relative stereo) [16-hydroxy-9-oxo-13-trans-prostenoic acid],0.455 mg/kg,0.0346 mg/kg,–,67%,"Score treated [4, 7]: 1.2"
9-oxo-18-hydroxy-19-hydroxy-13-trans-prostenoic acid,–,–,–,–,"ED50, spasmogenic agent histamine [2]: 1.04 mg/kg; Percent Inhibition (gastric acid secretion; intraduodenal dose 100 mg./kg of body weight): 28%; ED50, spasmogenic agent 5-hydroxytryptamine [3]: 1.19 mg/kg"
